Data from US9023407B2, “Plant extract for treating diabetes and process for making same” (Development Center for Biotechnology, priority 2012, dated 2015).
Marks after values point to notes of the source that are not given here.

Legend:
Sprague-Dawley rats = assay: Glucose tolerance test in normal rats; format: in vivo, rat; conditions: 10 mg/kg
Procedure: Twenty-six (26) Sprague-Dawley rats were divided into four groups: the placebo group (7 rats, to be administered with 10% Tween 20), the positive control group (7 rats, to be administered with glibenclamide), the 250 mg/kg HC group (6 rats, to be administered with 250 mg/kg ethanol extract of leaves and pseudostems of Hedychium coronarium Koening ), and the 750 mg/kg HC group (6 rats, to be administered with 750 mg/kg ethanol extract of the leaves and pseudostems of Hedychium coronarium Koening ). The rats were fasted for 7 hours and then administered with 250 mg/kg ethanol extract of leaves and pseudostems of Hedychium coronarium Koening (the 250 mg/kg HC group), 750 mg/kg ethanol extract of leaves and pseudostems of Hedychium coronarium Koening (the 750 mg/kg HC group), 10 mg/kg glibenclamide (the positive control group), or 10% Tween 20 (the placebo/control group). After 30 minutes, each rat was administered with glucose at a total amount of 5 g/kg, orally (2.5 g/kg) and subcutaneously (2.5 g/kg). Blood was drawn from each rat at the intervals of 0, 30, 60, 90 and 120 minutes for the measurement of glucose (mg/DL). […]
The test rats and procedure were as those in Example 1. However, in this example, 24 Sprague-Dawley rats were divided into four groups: the placebo group (6 rats, to be administered with water), the positive control group (6 rats, to be administered with 10 mg/kg glibenclamide), the 0.4 g/kg HC group (6 rats, to be administered with 0.4 g/kg water-ethanol extract of leaves and pseudostems of Hedychium coronarium Koening ), and the 0.8 g/kg HC group (6 rats, to be administered with 0.8 g/kg water-ethanol extract of leaves and pseudostems of Hedychium coronarium Koening ). After 30 minutes, each rat was administered with glucose at a total amount of 5 g/kg, orally (2.5 g/kg) and subcutaneously (2.5 g/kg). Blood was drawn from each animal at 30-minute intervals for the measurement of glucose (mg/DL). […]

[1] = tested on: Sprague-Dawley rats with type I diabetes; assay: Insulin resistance test in rats with type I diabetes; format: in vivo, rat; conditions: 0.3 U/kg insulin subcutaneous
Procedure: Eighteen (18) Sprague-Dawley rats with type I diabetes were divided into three groups: the control group (6 rats, to be administered with 10% Tween 20), the insulin group (6 rats, to be subcutaneously administered with 0.3 U/kg insulin) and the insulin plus HC group (6 rats, to be subcutaneously administered with 0.3 U/kg insulin and orally administered with 1.0 g/kg of ethanol extract of leaves and pseudostems of Hedychium coronarium Koening ). The rats were fasted for 4 hours and then administered with 10% Tween 20 (the control group), 0.3 U/kg insulin (the insulin group) or 0.3 U/kg insulin plus 1.0 g/Kg of ethanol extract of leaves and pseudostems of Hedychium coronarium Koening (the insulin plus HC group). After administration of 2.5 g/kg glucose, blood was drawn from each animal at 30-minute intervals for the measurement of glucose (mg/DL).

**Q.** Which “Concentration of blood glucose” value (Sprague-Dawley rats; Example 1, 0 min) does the source give for COc1ccc(Cl)cc1C(=O)NCCc1ccc(S(=O)(=O)NC(=O)NC2CCCCC2)cc1 [Glibenclamide, glibenclamide] here?
**A.** Its value is 99 ± 2.7 mg/dL.

**Q.** And the “Concentration of blood glucose” value (Sprague-Dawley rats; Example 1, 30 min)?
**A.** The value was 150.7 +/− 15.2** mg/DL.

**Q.** And the “Concentration of blood glucose” value (Sprague-Dawley rats; Example 1, 60 min)?
**A.** The value was 121.4 +/− 10.2** mg/DL.

**Q.** What about the “Concentration of blood glucose” value (Sprague-Dawley rats; Example 1, 90 min) of the same compound?
**A.** The value was 101.6 +/− 6.7** mg/DL.

**Q.** And the “Concentration of blood glucose” value (Sprague-Dawley rats; Example 1, 120 min)?
**A.** The value was 83.4 +/− 2.5*** mg/DL.

**Q.** And the “Concentration of blood glucose” value (Sprague-Dawley rats; Example 9, 0 min)?
**A.** Its value is 94.3 ± 3.8 mg/dL.

**Q.** What about the “Concentration of blood glucose” value (Sprague-Dawley rats; Example 9, 30 min) of the same compound?
**A.** The value was 173.8 +/− 14.5*** mg/DL.

**Q.** What about the “Concentration of blood glucose” value (Sprague-Dawley rats; Example 9, 60 min) of the same compound?
**A.** The value was 101.8 +/− 8.4*** mg/DL.

**Q.** What about the “Concentration of blood glucose” value (Sprague-Dawley rats; Example 9, 90 min) of the same compound?
**A.** The value was 82.7 +/− 8.1*** mg/DL.

**Q.** And the “Concentration of blood glucose” value (Sprague-Dawley rats; Example 9, 120 min)?
**A.** The value was 68.8 +/− 5.9*** mg/DL.

**Q.** How did the “Concentration of blood glucose” value ([1]; 0 min) turn out when “Insulin: insulin, subcutaneously administered at 0.3 U/kg” was run?
**A.** Its value is 522.5 ± 27.1 mg/dL.

**Q.** And the “Concentration of blood glucose” value ([1]; 30 min)?
**A.** The value was 695.8 +/− 18.7** mg/DL.

**Q.** What about the “Concentration of blood glucose” value ([1]; 60 min) of the same compound?
**A.** Its value is 593.3 +/− 16.2* mg/DL.

**Q.** And the “Concentration of blood glucose” value ([1]; 90 min)?
**A.** The value was 486.2 +/− 9.6* mg/DL.
